Laboratory results from ChEMBL document CHEMBL5154826, “Discovery of the Clinical Candidate MAK683: An EED-Directed, Allosteric, and Selective PRC2 Inhibitor for the Treatment of Advanced Malignancies” (J Med Chem, 2022).
Values after ≈ are worked out from the molar mass of the structure shown. Each block holds one compound with its values, some of them ahead of it. Active and inactive are the calls of the source. The calls are words filed in the database; no cut-off is given here.

Key:
[1] = Inhibition of PRC2 (unknown origin) assessed as reduction in H3K27 trimethylation using H3K27Me0 peptide (21 to 44 residues) as substrate by measuring SAH formation by LC-MS analysis; set-up: species or system Homo sapiens
[2] = High throughput solubility of the compound at pH 6.8 after 16 to 24 hrs by MS/MS analysis; format: physicochemical; conditions: buffer, time 16-24 hrs
Cytochrome P450 2D6 = Cytochrome P450 2D6 (Homo sapiens, UniProt P10635); experiment: Inhibition of CYP2D6 in human liver microsomes using bufuralol as substrate incubated for 10 mins in presence of NADPH by LC-MS/MS analysis; format: ADME, Microsome
cells = conditions: Homo sapiens, G-401, 48 h
Description: Inhibition of PRC2 in human G-401 cells assessed as H3K27 methylation status incubated for 48 hrs by ELISA method

Pfeiffer = experiment: Antiproliferative activity against human Pfeiffer cells assessed as inhibition of cell growth after 6 days by celltitre-glo assay; format: functional; conditions: 144 h, time 6 day
[3] = High throughput solubility of the compound at pH 4 after 16 to 24 hrs by MS/MS analysis; format: physicochemical; conditions: buffer, time 16-24 hrs
[4] = High throughput solubility of the compound at pH 7 after 16 to 24 hrs by MS/MS analysis; format: physicochemical; conditions: buffer, time 16-24 hrs
Mus musculus [5] = experiment: Reduction of H3K27 level in tumor of human Karpas-422 cells xenografted Athymic BALB/c nude mouse tumor at 20 mg/kg, po qd measured after 14 days; format: functional, organism-based; conditions: time 14.0 day
Mus musculus [6] = experiment: Reduction of […] in tumor of human Karpas-422 cells xenografted Athymic BALB/c nude mouse tumor at 3 to 300 mg/kg, po bid for 10 days; format: functional, organism-based; conditions: dose 3-300 mg/kg, time 10.0 day, DDE = dose-dependent effect
Mus musculus [7] = experiment: Reduction of H3K27 level in tumor of human Karpas-422 cells xenografted Athymic BALB/c nude mouse at 3 to 300 mg/kg, po bid for 21 days; format: functional, organism-based; conditions: dose 3-300 mg/kg, time 21.0 day, DDE = dose-dependent effect
PBMC [8] = experiment: In vivo inhibition of PRC2 in PBMC collected from human Karpas-422 cells xenografted Athymic NTac:NIH-Whn nude rat assessed as reduction in H3K27me3 level at 30 mg/kg, po, qd upto 4 weeks by FACS method; format: functional, organism-based; conditions: TDE = time-dependent effect
PBMC [9] = experiment: In vivo inhibition of PRC2 in PBMC collected from human Karpas-422 cells xenografted Athymic NTac:NIH-Whn nude rat assessed as complete recovery of H3K27me3 level at 30 mg/kg, po, qd treated for 4 weeks, followed by 4 weeks recovery period by FACS method; format: functional, organism-based
KARPAS-422 [10] = experiment: Antitumor activity against human Karpas-422 cells xenografted Athymic BALB/c nude mouse assessed as effect on tumor growth, at 10 to 300 mg/kg, po bid, treatment started at twenty fifth after implantation of cancer cells measured upto 55 days; format: functional, organism-based; conditions: dose 10-300 mg/kg, time <= 55.0 day, DDE = dose-dependent effect
Mus musculus [11] = experiment: Reduction of H3K27 level in tumor of human Karpas-422 cells xenografted Athymic BALB/c nude mouse at 3 to 100 mg/kg, po bid measured after 14 days; format: functional, organism-based; conditions: dose 3-100 mg/kg, time 14.0 day, DDE = dose-dependent effect
KARPAS-422 [12] = experiment: Antitumor activity against human Karpas-422 cells xenografted Athymic NTac:NIH-Whn nude rat assessed as inhibition of cell growth at 0.3 to 60 mg/kg, po, qd upto 130 days; format: functional, organism-based; conditions: dose 0.3-60 mg/kg, time <= 130.0 day
KARPAS-422 [13] = experiment: Antiproliferative activity against human KARPAS-422 cells expressing EZH2 mutant assessed as inhibition of cell growth after 14 days by beckman coulter counting method; format: functional; conditions: Homo sapiens, KARPAS-422, 336 h; time 14 day
[14] = biological target: T1, Alpha-2C adrenergic receptor (Homo sapiens, UniProt P18825); experiment: Inhibition of alpha2c adrenergic receptor (unknown origin)
T1 sequence (P18825 whole entry): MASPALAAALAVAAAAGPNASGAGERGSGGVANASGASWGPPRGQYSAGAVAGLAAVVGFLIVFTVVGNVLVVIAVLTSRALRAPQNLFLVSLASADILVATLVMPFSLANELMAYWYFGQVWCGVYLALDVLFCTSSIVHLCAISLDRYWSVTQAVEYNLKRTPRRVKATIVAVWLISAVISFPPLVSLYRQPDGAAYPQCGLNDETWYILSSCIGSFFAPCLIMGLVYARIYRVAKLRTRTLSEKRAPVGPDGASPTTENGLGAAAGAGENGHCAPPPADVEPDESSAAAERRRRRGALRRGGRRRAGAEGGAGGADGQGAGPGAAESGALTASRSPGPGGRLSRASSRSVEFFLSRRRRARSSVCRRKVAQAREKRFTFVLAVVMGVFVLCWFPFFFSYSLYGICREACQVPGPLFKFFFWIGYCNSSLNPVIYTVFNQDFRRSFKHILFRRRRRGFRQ

[15] = Dissociation constant, pKa of compound; format: physicochemical
[16] = Lipophilicity, logD of the compound at pH 7.4 by LC with tandem MS analysis; format: physicochemical; conditions: buffer, read-out: logD
[17] = biological target: 3',5'-cyclic-AMP phosphodiesterase 4D (Homo sapiens, UniProt Q08499); experiment: Inhibition of human Phosphodiesterase 4D
Cytochrome P450 2C9 = Cytochrome P450 2C9 (Homo sapiens, UniProt P11712); experiment: Inhibition of CYP2C9 in human liver microsomes using diclofenac as substrate incubated for 10 mins in presence of NADPH by LC-MS/MS analysis; format: ADME, Microsome
[18] = Terminal half life in Sprague-Dawley rat at 2 mg/kg, po; format: ADME, organism-based; conditions: in vivo, read-out: beta t1/2 (converted)
[19] = Permeability across apical to basolateral side in human Caco-2 cells at 10 uM incubated for 2 hrs by LC/MS/MS analysis; format: ADME, cell-based; conditions: Caco-2, read-out: permeability
[20] = Efflux ratio of apparent permeability across basolateral to apical side over apical to basolateral side in human Caco-2 cells at 10 uM incubated for 2 hrs by LC/MS/MS analysis; format: ADME, cell-based
Cytochrome P450 3A4 = Cytochrome P450 3A4 (Homo sapiens, UniProt P08684); experiment: Inhibition of CYP3A4 in human liver microsomes using midazolam as substrate incubated for 10 mins in presence of NADPH by LC-MS/MS analysis; format: ADME, Microsome
[21] = Oral bioavailability in Sprague-Dawley rat at 2 mg/kg; format: ADME, organism-based; conditions: in vivo
[22] = Dose normalized AUC in Sprague-Dawley rat at 2 mg/kg, po; format: ADME, organism-based; conditions: in vivo

Chain of Cytochrome P450 2D6 (P10635 whole entry): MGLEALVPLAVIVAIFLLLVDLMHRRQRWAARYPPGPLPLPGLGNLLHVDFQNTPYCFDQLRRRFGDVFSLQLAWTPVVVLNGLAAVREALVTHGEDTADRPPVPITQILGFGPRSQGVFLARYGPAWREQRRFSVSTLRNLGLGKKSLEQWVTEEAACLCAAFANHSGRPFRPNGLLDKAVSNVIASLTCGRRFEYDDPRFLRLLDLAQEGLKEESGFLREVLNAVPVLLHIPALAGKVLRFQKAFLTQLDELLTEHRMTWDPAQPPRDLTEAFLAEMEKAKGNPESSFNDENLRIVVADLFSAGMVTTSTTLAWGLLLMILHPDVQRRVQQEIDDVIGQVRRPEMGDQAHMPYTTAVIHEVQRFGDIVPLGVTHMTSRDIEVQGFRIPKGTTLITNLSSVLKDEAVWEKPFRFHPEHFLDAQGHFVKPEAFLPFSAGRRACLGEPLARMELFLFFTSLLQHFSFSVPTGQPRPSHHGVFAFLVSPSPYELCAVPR
Chain of Cytochrome P450 2C9 (P11712 whole entry): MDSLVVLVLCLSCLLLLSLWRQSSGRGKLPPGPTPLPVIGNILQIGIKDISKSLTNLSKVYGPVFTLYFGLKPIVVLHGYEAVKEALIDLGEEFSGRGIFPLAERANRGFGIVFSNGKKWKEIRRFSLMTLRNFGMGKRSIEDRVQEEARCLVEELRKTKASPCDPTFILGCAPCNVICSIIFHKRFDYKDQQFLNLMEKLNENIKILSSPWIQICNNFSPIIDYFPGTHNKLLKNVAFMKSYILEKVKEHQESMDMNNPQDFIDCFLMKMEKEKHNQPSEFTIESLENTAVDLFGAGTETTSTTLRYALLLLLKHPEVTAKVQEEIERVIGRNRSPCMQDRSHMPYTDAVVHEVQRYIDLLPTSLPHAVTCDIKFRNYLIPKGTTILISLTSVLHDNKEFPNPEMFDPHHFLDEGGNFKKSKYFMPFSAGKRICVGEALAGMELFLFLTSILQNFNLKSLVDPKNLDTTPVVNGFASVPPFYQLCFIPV
Chain of 3',5'-cyclic-AMP phosphodiesterase 4D (Q08499 whole entry): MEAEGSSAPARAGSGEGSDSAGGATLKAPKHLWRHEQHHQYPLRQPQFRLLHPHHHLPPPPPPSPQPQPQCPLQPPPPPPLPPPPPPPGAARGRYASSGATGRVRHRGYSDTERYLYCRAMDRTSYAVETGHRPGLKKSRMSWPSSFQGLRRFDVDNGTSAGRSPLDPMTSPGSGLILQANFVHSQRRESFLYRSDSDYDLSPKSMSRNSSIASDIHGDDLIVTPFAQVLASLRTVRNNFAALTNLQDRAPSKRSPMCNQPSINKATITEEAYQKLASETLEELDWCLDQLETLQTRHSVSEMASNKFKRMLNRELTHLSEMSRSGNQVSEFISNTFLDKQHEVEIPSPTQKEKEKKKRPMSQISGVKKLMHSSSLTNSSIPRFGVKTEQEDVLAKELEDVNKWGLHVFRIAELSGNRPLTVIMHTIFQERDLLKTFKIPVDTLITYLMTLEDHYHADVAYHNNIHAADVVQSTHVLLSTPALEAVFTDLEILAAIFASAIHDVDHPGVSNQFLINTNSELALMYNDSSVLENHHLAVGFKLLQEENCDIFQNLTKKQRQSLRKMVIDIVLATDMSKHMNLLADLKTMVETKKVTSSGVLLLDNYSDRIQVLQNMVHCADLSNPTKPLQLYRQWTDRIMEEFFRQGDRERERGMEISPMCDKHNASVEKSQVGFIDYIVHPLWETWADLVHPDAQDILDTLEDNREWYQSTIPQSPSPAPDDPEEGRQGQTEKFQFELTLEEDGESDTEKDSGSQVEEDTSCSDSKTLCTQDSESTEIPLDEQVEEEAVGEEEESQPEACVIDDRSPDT
Chain of Cytochrome P450 3A4 (P08684 whole entry): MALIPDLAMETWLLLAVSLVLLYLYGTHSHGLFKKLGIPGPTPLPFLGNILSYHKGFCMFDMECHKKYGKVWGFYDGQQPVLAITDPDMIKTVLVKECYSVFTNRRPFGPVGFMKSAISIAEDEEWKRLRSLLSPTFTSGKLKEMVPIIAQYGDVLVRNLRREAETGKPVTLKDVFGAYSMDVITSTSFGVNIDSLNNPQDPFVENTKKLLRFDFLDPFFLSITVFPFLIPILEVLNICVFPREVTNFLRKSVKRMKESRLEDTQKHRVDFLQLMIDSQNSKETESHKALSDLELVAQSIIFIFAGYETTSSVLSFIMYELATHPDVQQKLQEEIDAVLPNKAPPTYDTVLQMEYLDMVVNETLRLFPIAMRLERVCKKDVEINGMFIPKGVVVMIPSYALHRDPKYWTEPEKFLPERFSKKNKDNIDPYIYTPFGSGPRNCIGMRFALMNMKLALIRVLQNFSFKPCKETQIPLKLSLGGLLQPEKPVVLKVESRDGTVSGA

Structure (SMILES): Cc1ccc(-c2cnc(NCc3c(F)ccc4c3CCO4)n3cnnc23)c(C)n1
- IC50 [1]: 0.005 µM
- solubility [2]: 308 µM (≈ 120 µg/mL)
- IC50 (Cytochrome P450 2D6): 31 µM

Structure (SMILES): Cc1ncccc1-c1cnc(NCc2c(F)ccc3c2CCO3)n2cnnc12.Cl
- solubility [3]: 494 µM
- solubility [4]: 69 µM

Structure (SMILES): Cc1ncccc1-c1cnc(NCc2c(F)ccc3c2CCO3)n2cnnc12
- Activity (Mus musculus [5]): Active
- Activity (Mus musculus [6]): Dde
- Activity (Mus musculus [7]): Dde
- inhibition (PBMC [8]): Tde
- inhibition (PBMC [9]): Active
- Activity (KARPAS-422 [10]): Dde
- Activity (Mus musculus [11]): Dde
- Activity (KARPAS-422 [12]): Active

Structure (SMILES): CN(C)Cc1ccc(-c2cnc(NCc3cccc4c3OCC4)n3cnnc23)cc1
- IC50 [1]: 2600 µM

Structure (SMILES): c1cc(CNc2ncc(-c3ccncc3)c3nncn23)c2c(c1)OCC2
- GI50 (KARPAS-422 [13]): 0.01 µM
- IC50 [14]: > 30 µM
- IC50 [1]: 0.017 µM
- pKa [15]: 5.4
- logD [16]: 2.5
- IC50 [17]: 10 µM
- solubility [2]: 5 µM (≈ 1.72 µg/mL)
- IC50 (Cytochrome P450 2C9): > 50 µM
- IC50 (Cytochrome P450 2D6): 0.2 µM

Structure (SMILES): CN(C)Cc1ccc(-c2cnc(NCc3cccc4c3CCO4)n3cnnc23)cc1
- IC50 [1]: 20 µM
- IC50 (cells): 14 µM
- GI50 (Pfeiffer): 0.067 µM

Structure (SMILES): CN(C)Cc1ccc(-c2cnc(NCc3cccc4c3OCO4)n3cnnc23)cc1
- IC50 [1]: 15 µM
- IC50 (cells): 260 µM
- GI50 (Pfeiffer): 1.3 µM

Structure (SMILES): Cc1ccc(-c2cnc(NCc3c(F)ccc4c3CCO4)n3cnnc23)cn1
- IC50 [1]: 0.019 µM
- solubility [2]: 112 µM (≈ 42.2 µg/mL)
- IC50 (Cytochrome P450 2D6): 7.4 µM

Further lines, with some results ahead:

- IC50 [1]: 110 µM
- IC50 (cells): 320 µM
Structure (SMILES): COc1cccc(CNc2ncc(-c3ccc(CN(C)C)cc3)c3nncn23)c1
- GI50 (Pfeiffer): 2.97 µM

- IC50 [1]: 0.023 µM
- solubility [2]: 162 µM (≈ 61.1 µg/mL)
- IC50 (Cytochrome P450 2D6): 25 µM
Structure (SMILES): COc1cccc(F)c1CNc1ccc(-c2ccc(C)nc2C)c2nncn12

- IC50 [1]: 0.011 µM
- solubility [2]: 265 µM (≈ 96.3 µg/mL)
- IC50 (Cytochrome P450 2D6): > 50 µM
Structure (SMILES): COc1cccc(F)c1CNc1ccc(-c2cccnc2C)c2nncn12

- solubility [2]: 85 µM (≈ 30.8 µg/mL)
- IC50 (Cytochrome P450 2D6): 0.019 µM
Structure (SMILES): Fc1ccc2c(c1CNc1ncc(-c3cccnc3)c3nncn13)CCO2

- IC50 [1]: 0.016 µM
- solubility [2]: 22 µM (≈ 7.69 µg/mL)
- IC50 (Cytochrome P450 2D6): 0.4 µM
Structure (SMILES): COc1cccc(F)c1CNc1ccc(-c2cccnc2)c2nncn12

- GI50 (KARPAS-422 [13]): 0.012 µM
- half-life [18]: 1.5 h
- IC50 [14]: 3.9 µM
- IC50 [1]: 0.024 µM
- Papp A→B at 2 h, 10 µM [19]: 30 ×10⁻⁶ cm/s
- pKa [15]: 4.5
- efflux ratio at 2 h, 10 µM [20]: 0.96
- logD [16]: 2.6
- IC50 (Cytochrome P450 3A4): 29 µM
- IC50 [17]: 2.6 µM
- solubility [2]: 15 µM (≈ 5.17 µg/mL)
- bioavailability [21]: 71%
- IC50 (Cytochrome P450 2C9): 12 µM
- IC50 (cells): 0.033 µM
- AUC/dose [22]: 5790 nM·h
- IC50 (Cytochrome P450 2D6): 0.1 µM
Structure (SMILES): c1cncc(-c2cnc(NCc3cccc4c3CCO4)n3cnnc23)c1
